Data from EP1984353B1, “AURORA KINASE MODULATORS AND METHOD OF USE” (Amgen, Inc, priority 2006, dated 2007).
Where two headings read alike, the source gives them in different places.

Legend:
AuroraA-TPX2 = molecular target: T1, AuroraA-TPX2 (Homo sapiens, UniProt O14965); test: AuroraA-TPX2 Homogeneous Time Resolved Fluorescent (HTRF) kinase assay; format: biochemical; conditions: average, read-out: AurA/TP X2_ IC50_IP (Avg)
T1 construct: 20 µL of AuroraA-TPX2 KD GST; GST
T1 sequence (O14965 133-383 limits assumed): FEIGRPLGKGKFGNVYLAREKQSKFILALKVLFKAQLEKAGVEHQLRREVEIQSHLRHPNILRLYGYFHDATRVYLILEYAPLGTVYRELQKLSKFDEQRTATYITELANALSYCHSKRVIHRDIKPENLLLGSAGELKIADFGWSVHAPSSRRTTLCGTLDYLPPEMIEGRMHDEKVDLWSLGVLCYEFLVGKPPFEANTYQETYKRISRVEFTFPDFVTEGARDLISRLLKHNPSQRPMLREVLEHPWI
T1 sequence (Q9ULW0 1-43 partner limits assumed): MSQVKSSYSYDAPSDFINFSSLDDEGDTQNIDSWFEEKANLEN
Experimental: AuroraA-TPX2-Homogeneous Time Resolved Fluorescent (HTRF) Kinase Assay:
The Aurora-A HTRF assay begins with Aurora-A in the presence of ATP phosphorylating the biotinylated peptide PLK. The reaction incubates for about 120 min. Detection reagents are added to quench the reaction. These agents stop the reaction by diluting out the enzyme and chelating the metals due to the presence of EDTA. After addition, the assay is incubated overnight to allow the detection reagents to equilibrate.
The final concentration of PLK is about 1 µM. […] Buffer conditions are as follows: 60mM HEPES pH 7.5, 25mM NaCl, 10mM MgCl, 2mM DTT, 0.05% BSA.
(§1) The assay is quenched and stopped with 160 µL, of detection reagent. Detection reagents are as follows: Buffer made of 50mM Tris, pH 7.5, 100mM NaCl, 3mM EDTA, 0.05% BSA, 0.1% Tween20. Added to this buffer prior to reading is Steptavidin allophycocyanin (SA-APC) at a final conc in the assay of 0.0005 mg/mL, and europilated anti-phosphoPLK Ab (Eu-anti-PLK) at a final conc of 0.02 nM.
The assay plate is read in either a Discovery or a RubyStar. The eu-anti-PLK is excited at 320 nm and emits at 615 nm to excite the SA-APC which in turn emits at 655 nm.

AuroraB = molecular target: T2, AuroraB (Homo sapiens, UniProt Q96GD4); test: AuroraB Homogeneous Time Resolved Fluorescent (HTRF) kinase assay; format: biochemical; conditions: average, read-out: AurB_ _IC50_IP (Avg)
T2 construct: 20 µL of AuroraB FL His; His
T2 sequence (Q96GD4 whole entry): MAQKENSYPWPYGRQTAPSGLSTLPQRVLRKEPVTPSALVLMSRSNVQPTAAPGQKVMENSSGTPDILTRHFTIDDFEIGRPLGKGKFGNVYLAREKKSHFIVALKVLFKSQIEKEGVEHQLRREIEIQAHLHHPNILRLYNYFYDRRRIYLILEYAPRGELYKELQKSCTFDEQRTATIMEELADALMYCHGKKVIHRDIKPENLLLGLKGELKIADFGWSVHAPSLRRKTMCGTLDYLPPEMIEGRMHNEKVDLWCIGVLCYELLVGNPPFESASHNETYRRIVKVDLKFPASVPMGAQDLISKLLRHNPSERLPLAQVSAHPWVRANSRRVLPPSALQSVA
Experimental: AuroraB-Homogeneous Time Resolved Fluorescent (HTRF) Kinase Assay:
The AuroraB HTRF assay begins with AuroraB in the presence of ATP phosphorylating the biotinylated peptide Histone H3. The reaction incubates for about 90 min. the reaction is quentched by addition of detection reagents, which stop the reaction by diluting out the enzyme and chelating the metals due to the presence of EDTA. After addition, the assay is incubated for about 60 min to allow detection reagents to equilibrate.
The AuroraB HTRF assay comprises 1 µL of compound in 100% DMSO, 20 µL of ATP and biotinylated Histone H3, and 20 µL of AuroraB FL His for a final volume of 41 µL. The final concentration of Histone H3 is 0.1 µM. The final concentration of ATP is 23 µM (Km(app) = 23 µM+/-2.6) and the final concentration of AuroraB is 400 pM. Buffer conditions are as follows: 50mM HEPES pH 7.5, 5mM NaCl, 0.5mM MgCl, 0.5mM MnCl, 2mM DTT, 0.05% BSA.
as §1, with “µL” for “µL,”, “0.001” for “0.0005”, “anti-phosphoHistoneH3” for “anti-phosphoPLK”, “(Eu-anti-HisH3)” for “(Eu-anti-PLK)”, “0.064” for “0.02”
The assay plate is read in either a Discovery or a RubyStar. The eu-anti-HisH3 is excited at 320 nm and emits at 615 nm to excite the SA-APC which in turn emits at 655 nm. The ratio of SA-APC at 655 nm (excited due to close proximity to the Eu-anti-HisH3 because of phosphorylation of the peptide) to free Eu-anti-HisH3 at 615 nm will give substrate phosphorylation.

[1] = given as numbers, unit inferred

Structure (SMILES) | IC50 (AuroraA-TPX2; given as class symbols) [nM] | IC50 (AuroraB; given as class symbols) [nM] | IC50 (AuroraA-TPX2; [1]) [nM] | IC50 (AuroraB; [1]) [nM]
Cc1cccc(-c2nnc(Nc3ccc(Oc4ncccc4-c4ccnc(NCCCN5CCCCC5)n4)cc3)c3ccccc23)n1 [compound 276, 4-(6-methyl-2-pyridinyl)-N-(4-((3-(2-((3-(1-piperidinyl)propyl)amino)-4-pyrimidinyl)-2-pyridinyl)oxy)phenyl)-1-phthalazinamine] | 100 to 500 | ≤ 100 |  | 
Cc1cccc(-c2nnc(Nc3ccc(Oc4ncccc4-c4ccnc(NCCCN5CCNCC5)n4)cc3)c3ccccc23)n1 [compound 277, 4-(6-methyl-2-pyridinyl)-N-(4-((3-(2-((3-(1-piperazinyl)propyl)amino)-4-pyrimidinyl)-2-pyridinyl)oxy)phenyl)-1-phthalazinamine] |  |  | 126 | 2.7
c1ccc(-c2nnc(Nc3ccc(Oc4ncccc4-c4ccnc5c4CCCN5)cc3)c3ccccc23)cc1 [compound 283, 4-phenyl-N-(4-((3-(5,6,7,8-tetrahydro-1,8-naphthyridin-4-yl)-2-pyridinyl)oxy)phenyl)-1-phthalazinamine] | 500 to 2500 | 100 to 500 |  | 
Cc1csc(-c2nnc(Nc3ccc(Oc4ncccc4-c4ccnc5c4CCCN5)cc3)c3ccccc23)n1 [compound 284, 4-(4-methyl-1,3-thiazol-2-yl)-N-(4-((3-(5,6,7,8-tetrahydro-1,8-naphthyridin-4-yl)-2-pyridinyl)oxy)phenyl)-1-phthalazinamine] |  |  | 167 | 191
Cc1cc(-c2ccccc2)nnc1Nc1ccc(Oc2ncccc2-c2ccnc3c2CCCN3)cc1 [compound 285, 4-methyl-6-phenyl-N-(4-((3-(5,6,7,8-tetrahydro-1,8-naphthyridin-4-yl)-2-pyridinyl)oxy)phenyl)-3-pyridazinamine] | 500 to 2500 | 100 to 500 |  | 
c1ccc(-c2nnc(Nc3ccc(Oc4ncccc4-c4ccnc5c4CCN5)cc3)c3ccccc23)cc1 [compound 287, N-(4-((3-(2,3-dihydro-1H-pyrrolo[2,3-b]pyridin-4-yl)-2-pyridinyl)oxy)phenyl)-4-phenyl-1-phthalazinamine] |  |  | 83.3 | 10.3
Cc1csc(-c2nnc(Nc3ccc(Oc4ncccc4-c4ccnc5c4CCN5)cc3)c3ccccc23)n1 [compound 288, N-(4-((3-(2,3-dihydro-1H-pyrrolo[2,3-b]pyridin-4-yl)-2-pyridinyl)oxy)phenyl)-4-(4-methyl-1,3-thiazol-2-yl)-1-phthalazinamine] | ≤ 100 | 500 to 2500 |  | 
Cc1ccc(-c2nnc(Nc3ccc(Oc4ncccc4-c4ccnc(N)n4)nc3)c3ccccc23)nc1 [compound 289, N-(6-((3-(2-amino-4-pyrimidinyl)-2-pyridinyl)oxy)-3-pyridinyl)-4-(5-methyl-2-pyridinyl)-1-phthalazinamine] |  |  | 24.1 | 1.9
CN1CCN(CCCNc2ncc(F)c(-c3cccnc3Oc3ccc(Nc4nnc(-c5ccccc5)c5ccccc45)cc3)n2)CC1 [compound 291, N-(4-((3-(5-fluoro-2-((3-(4-methyl-1-piperazinyl)propyl)amino)-4-pyrimidinyl)-2-pyridinyl)oxy)phenyl)-4-phenyl-1-phthalazinamine] |  |  | 15.7 | 3
COc1cccc(-c2nnc(Nc3ccc(Oc4ncccc4-c4ccnc(N)n4)cc3)c3ccccc23)n1 [compound 292, N-(4-((3-(2-amino-4-pyrimidinyl)-2-pyridinyl)oxy)phenyl)-4-(6-(methyloxy)-2-pyridinyl)-1-phthalazinamine] | ≤ 100 | ≤ 100 |  | 
COc1cccc(-c2nnc(Nc3ccc(Oc4ncccc4-c4ccnc(N)n4)nc3)c3ccccc23)n1 [compound 293, N-(6-((3-(2-amino-4-pyrimidinyl)-2-pyridinyl)oxy)-3-pyridinyl)-4-(6-(methyloxy)-2-pyridinyl)-1-phthalazinamine] | ≤ 100 | ≤ 100 |  | 
c1ccc(-c2nnc(Nc3ccc(Oc4ncccc4-c4ccnc(NCCCN5CCC5)n4)cc3)c3ccccc23)cc1 [compound 295, N-(4-((3-(2-((3-(1-azetidinyl)propyl)amino)-4-pyrimidinyl)-2-pyridinyl)oxy)phenyl)-4-phenyl-1-phthalazinamine] | 100 to 500 | ≤ 100 |  | 
